Assay results taken from US7307099B2, “4-(1-(sulfonyl)-1h-indol-2-yl)-4-(hydroxy)-cyclohexa-2,5-dienone compounds and analogs thereof as therapeutic agents” (Cancer Research Technology Limited, priority 2002, dated 2007).
Where two headings read alike, the source gives them in different places.

Assays:
[1] = Maximum tolerated dose in mice; conditions: mouse, in vivo, daily (×5) schedule
Method: (§1) The in vivo activity of SIQ-01 was studied. The maximum tolerated dose of SIQ-01 in mice is 30 mg/kg on a daily (×5) schedule. Combination treatment of SIQ-01 and cisplatin was active against the HCT116 colon carcinoma tumour when administered to tumour-bearing mice (15 mg SIC-01/kg administered by intraperitoneal injection on days 1-5 and 8-10; 4 mg cisplatin/kg administered subcutaneously on days 1 and 8), and gave a maximum T/C (Test/Control) of 49%. Treatment with cisplatin alone (same regimen) gave a maximum T/C (Test/Control) of 56%.

HCT-116 (colon) = experiment: NCI in vitro 60 cell panel, HCT-116; type: cell-based; conditions: Homo sapiens, read-out: Most Senstive Cells Lines mean log10 LC50 (converted)
Method: (§2) Compounds were tested for in vitro activity (48 hour drug exposure) across 60 human cancer cell lines through the National Cancer Institute (NCl) Developmental Therapies Screening Program (Boyd et al., 1995).

[2] = system: 60 human cancer cell lines; experiment: NCI in vitro 60 cell panel (48 hour drug exposure); type: cell-based; conditions: for LC50: read-out: Mean log10 LC50 (converted)
Method: as §2

HT29 colon carcinoma = experiment: Growth inhibitory assay (MTT, 72 hour exposure), HT29; type: cell-based; conditions: Homo sapiens, HT 29, MTT
Method: (§3) Compounds were prepared as 10 mM top stocks, dissolved in DMSO, and stored at 4° C., protected from light, for a maximum period of 4 weeks. Human derived cell lines (HCT 116, HT29 colon carcinoma) were routinely cultivated at 37° C. in an atmosphere of 5% CO2 in RPMI 1640 medium supplemented with 2 mM L-glutamine and 10% fetal calf serum and subcultured twice weekly to maintain continuous logarithmic growth. Cells were seeded into 96-well microtiter plates at a density of 5×10^3 per well and allowed 24 hours to adhere before drugs were introduced (final concentration 0.1 nM-100 μM, n=8). Serial drug dilutions were prepared in medium immediately prior to each assay. At the time of drug addition and following 72 hour exposure, MTT was added to each well (final concentration 400 µg/mL). Incubation at 37° C. for 4 hr allowed reduction of MTT by mitochondrial dehydrogenase to an insoluble formazan product. Well contents were aspirated and formazan solubilized by addition of DMSO:glycine buffer (pH 10.5) (4:1). Absorbance was measured using an Anthos Labtec systems plate reader at 550 nm, and used as a measure of cell viability; thus cell growth or drug toxicity was determined.

HCT 116 colon carcinoma = experiment: Growth inhibitory assay (MTT, 72 hour exposure), HCT 116; type: cell-based; conditions: Homo sapiens, HCT 116, MTT
Method: as §3

CAKI-1 (renal) = experiment: NCI in vitro 60 cell panel, CAKI-1; type: cell-based; conditions: Homo sapiens, read-out: Most Senstive Cells Lines mean log10 LC50 (converted)
Method: as §2

[3] = system: HCT116 colon carcinoma tumour; experiment: HCT116 colon carcinoma tumour in tumour-bearing mice; type: in vivo
Method: as §1

ACHN (renal) = experiment: NCI in vitro 60 cell panel, ACHN; type: cell-based; conditions: Homo sapiens, read-out: Most Senstive Cells Lines mean log10 LC50 (converted)
Method: as §2

LOX IMVI (melanoma) = experiment: NCI in vitro 60 cell panel, LOX IMVI; type: cell-based; conditions: Homo sapiens, read-out: Most Senstive Cells Lines mean log10 LC50 (converted)
Method: as §2

[4] = target: T1, Thioredoxin/Thioredoxin Reductase (Tx/TR) (Homo sapiens, UniProt P10599); experiment: Thioredoxin/thioredoxin reductase-catalysed reduction of insulin; type: biochemical; conditions: 30 min at 37° C.
T1 construct: was purified from human placenta as previously described; made in house; host or cells: hTrx: Escherichia coli; TR: purified from human placenta tissue
T1 sequence (P10599 2-105 limits assumed): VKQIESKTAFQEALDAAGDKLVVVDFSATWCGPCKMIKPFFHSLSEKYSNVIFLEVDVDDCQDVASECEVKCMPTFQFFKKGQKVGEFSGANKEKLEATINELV
Method: Assays were performed using methods analogous to those described in Kirkpatrick et al., 1999 and Kunkel et al., 1997.
[…] (specific activity 43.6 μmol NADPH reduced/min/mg protein at 21° C.) was purified from human placenta as previously described (Oblong et al., 1993). Recombinant hTrx was expressed in Escherichia coli and purified as previously described (Gasdaska et al., 1994). The Trx and TR were stored at −20° C. with 5 mM dithiothreitol (DTT) which was removed before use with a desalting column (PDIO, Pharmacla, Uppsala, Sweden).
Microtitre plate colorimetric assays, based on the increase in absorbance at 405 nm which occurs as dithionitrobenzoic acid (DTNB) is reduced by the enzyme-mediated transfer of reducing equivalents from NADPH, were used to measure TR/Trx-dependent insulin-reduction and TR activity (see, e.g., Kunkel et al., 1997).
Thioredoxin reductase/thioredox […] insulin reducing activity was measured in an incubation with a final volume of 60 μL containing 100 mM HEPES buffer, pH 7.2, 5 mM EDTA (HE buffer), 1 mM NADPH, 1.0 μM thioredoxin reductase, 0.8 μM thioredoxin, and 2.5 mg/ml bovine insulin in flat-bottom 96-well microtitre plates. […] The reaction was stopped by the addition of 100 μL of 6 M guanidine HCl, 50 mM Tris, pH 8.0, and 10 mM DTNB, and the absorbance measured at 405 nm.

UO-31 (renal) = experiment: NCI in vitro 60 cell panel, UO-31; type: cell-based; conditions: Homo sapiens, read-out: Most Senstive Cells Lines mean log10 LC50 (converted)
Method: as §2

U251 (CNS cancer) = experiment: NCI in vitro 60 cell panel, U251; type: cell-based; conditions: Homo sapiens, U-251, read-out: Most Senstive Cells Lines mean log10 LC50 (converted)
Method: as §2

RXF 393 (renal) = experiment: NCI in vitro 60 cell panel, RXF 393; type: cell-based; conditions: Homo sapiens, read-out: Most Senstive Cells Lines mean log10 LC50 (converted)
Method: as §2

[5] = in fetal calf serum; cited from earlier work
[6] = 60 cell, as in Table 3, read-out: Mean GI50
[7] = mean across 60 cell lines, 48 hour drug exposure
[8] = mean across 60 cell lines, 48 hour drug exposure, read-out: mean log10 GI50 (converted)

Compound	CC50 (HCT-116 (colon)) [nM]	GI50 [2, 6] [nM]	LC50 [2, 7] [µM]	GI50 [2, 8] [nM]	IC50 (HT29 colon carcinoma) [nM]	IC50 (HCT 116 colon carcinoma) [nM]	CC50 (LOX IMVI (melanoma)) [nM]	further results
O=C1C=CC(O)(c2cc3ccccc3n2S(=O)(=O)c2ccccc2)C=C1 [SIQ-01, 4-(1-benzenesulfonyl-1H-indol-2-yl)-4-hydroxy-cyclohexa-2,5-dienone]	33.1	152	2.95	38.9	259	86		MTD at 5 days [1]: 30 mg/kg; CC50 (CAKI-1 (renal)): 52.5 nM; maximum T/C (Test/Control) ([3]; combination with cisplatin: 15 mg/kg i.p. days 1-5 and 8-10, 4 mg cisplatin/kg s.c. days 1 and 8): 49%
COc1ccc2c(c1)cc(C1(O)C=CC(=O)C=C1)n2S(=O)(=O)c1ccccc1 [SIQ-02, 4-(1-benzenesulfonyl-5-methoxy-1H-indol-2-yl)-4-hydroxy-cyclohexa-2,5-dienone]			6.17	135			468	CC50 (ACHN (renal)): 447 nM
O=C1C=CC(O)(c2cc3cc(F)ccc3n2S(=O)(=O)c2ccccc2)C=C1 [SIQ-03, 4-(1-benzenesulfonyl-5-fluoro-1H-indol-2-yl)-4-hydroxy-cyclohexa-2,5-dienone]	50.1	527	3.24	66.1	347	68	63.1	
Cc1ccc(S(=O)(=O)n2c(C3(O)C=CC(=O)C=C3)cc3ccccc32)cc1 [SIQ-04]	47.9	< 100	7.24	112	206	36	234	IC50 [4]: < 100 µM
COc1ccc(S(=O)(=O)n2c(C3(O)C=CC(=O)C=C3)cc3ccccc32)cc1 [SIQ-05]	112		6.31	162	420	203	380	
O=C1C=CC(O)(c2cc3ccccc3n2S(=O)(=O)c2ccc(F)cc2)C=C1 [SIQ-06, 4-[1-(4-fluoro-benzenesulfonyl)-1H-indol-2-yl]-4-hydroxy-cyclohexa-2,5-dienone]	363		7.76	234				CC50 (UO-31 (renal)): 631 nM
O=C1C=CC(O)(c2cc3ccccc3n2S(=O)(=O)c2ccc3ccccc3c2)C=C1 [SIQ-07]	372		5.62	191	274	193		CC50 (U251 (CNS cancer)): 513 nM
CC(C)c1cc(C(C)C)c(S(=O)(=O)n2c(C3(O)C=CC(=O)C=C3)cc3ccccc32)c(C(C)C)c1 [SIQ-09]	550		11.2	427				CC50 (RXF 393 (renal)): 776 nM
O=C1C=CC(O)(c2cc3ccccc3n2S(=O)(=O)c2ccccc2)c2ccccc21 (stereo not drawn) [SIQ-10, 4-(1-benzenesulfonyl-1H-indol-2-yl)-4-hydroxy4H-naphthalen-1-one]	794		7.76	447	444	205	776	
Cc1ccc(S(=O)(=O)n2c(C3(O)C=CC(=O)c4ccccc43)cc3ccccc32)cc1 (stereo not drawn) [SIQ-11, 4-hydroxy 4-[1-(toluene-4-sulfonyl)-1H-indol-2-yl]-4H-naphthalen-1-one]	490	> 1000	5.62	389	391	155	724	
N.N.[Cl][Pt][Cl] [cisplatin, reference compound]								maximum T/C (Test/Control) ([3]; cisplatin alone, 4 mg/kg s.c. days 1 and 8): 56%
O=CN/C=C/c1cc(O)ccc1O [erbstatin]								half-life [5]: < 30 min
